Measured values from article PMC4303209, “A novel phosphatidylinositol 3-kinase (PI3K) inhibitor directs a potent FOXO-dependent, p53-independent cell cycle arrest phenotype characterized by the differential induction of a subset of FOXO-regulated genes” (Breast Cancer Research : BCR, 2014).

Tested on: MCF-7 breast cancer cells
Assay: Microarray gene expression analysis (Agilent whole human genome 4 x 44K; compound vs DMSO, LIMMA log2 fold change)
Assay type: cell-based

For `Oc1cccc(-c2nc(N3CCOCC3)c3oc4ncccc4c3n2)c1` [PI-103], the “PRNP log2FC” value was 0.095, the log2FC was 0.10 and the “AARS log2FC” value (Apoptosis genes, Gene 16) was -0.158. The “ABL1 log2FC” value (Apoptosis genes, Gene 25) was -0.144, the “ABR log2FC” value (Apoptosis genes, Gene 29) was -0.279 and the “ACTN4 log2FC” value (Apoptosis genes, Gene 81) was -0.244. For the same compound, the “ACTN1 log2FC” value (Apoptosis genes, Gene 87) was -0.457, the “ACTN2 log2FC” value (Apoptosis genes, Gene 88) was 0.074 and the “ACTN3 log2FC” value (Apoptosis genes, Gene 89) was -0.703. The “ACVR1 log2FC” value (Apoptosis genes, Gene 90) was 0.552, the “ACVR1B log2FC” value (Apoptosis genes, Gene 91) was -0.214 and the “ADA log2FC” value (Apoptosis genes, Gene 100) was -0.093. The “ADAM8 log2FC” value (Apoptosis genes, Gene 101) was -0.513, the “ADAR log2FC” value (Apoptosis genes, Gene 103) was -0.239 and the “ADCYAP1 log2FC” value (Apoptosis genes, Gene 116) was 0.042. The “ADD1 log2FC” value (Apoptosis genes, Gene 118) was -0.173, the “ADM log2FC” value (Apoptosis genes, Gene 133) was -0.875 and the “ADORA1 log2FC” value (Apoptosis genes, Gene 134) was -1.870. For the same compound, the “ADORA2A log2FC” value (Apoptosis genes, Gene 135) was -0.109, the “ADRB1 log2FC” value (Apoptosis genes, Gene 153) was -0.133 and the “AES log2FC” value (Apoptosis genes, Gene 166) was -0.056. For the same compound, the “AGT log2FC” value (Apoptosis genes, Gene 183) was -0.084, the “AHR log2FC” value (Apoptosis genes, Gene 196) was 0.783 and the “AKT1 log2FC” value (Apoptosis genes, Gene 207) was -0.579. For the same compound, the “AKT2 log2FC” value (Apoptosis genes, Gene 208) was -0.406, the “ALDH1A3 log2FC” value (Apoptosis genes, Gene 220) was -0.150 and the “ALDOC log2FC” value (Apoptosis genes, Gene 230) was 0.017. The “ALK log2FC” value (Apoptosis genes, Gene 238) was 0.007, the “ALOX15B log2FC” value (Apoptosis genes, Gene 247) was -0.00234 and the “ANGPT1 log2FC” value (Apoptosis genes, Gene 284) was -0.412. For the same compound, the “SLC25A4 log2FC” value (Apoptosis genes, Gene 291) was -0.414, the “SLC25A5 log2FC” value (Apoptosis genes, Gene 292) was -0.037 and the “ANXA1 log2FC” value (Apoptosis genes, Gene 301) was 0.803. The “ANXA4 log2FC” value (Apoptosis genes, Gene 307) was 0.480, the “ANXA5 log2FC” value (Apoptosis genes, Gene 308) was 0.167 and the “APAF1 log2FC” value (Apoptosis genes, Gene 317) was 0.575. For the same compound, the “NUDT2 log2FC” value (Apoptosis genes, Gene 318) was 0.219, the “APBB2 log2FC” value (Apoptosis genes, Gene 323) was -0.180 and the “APC log2FC” value (Apoptosis genes, Gene 324) was 0.150. For the same compound, the “BIRC3 log2FC” value (Apoptosis genes, Gene 330) was -0.884, the “BIRC5 log2FC” value (Apoptosis genes, Gene 332) was 0.037 and the “APLP1 log2FC” value (Apoptosis genes, Gene 333) was -0.057. The “APOE log2FC” value (Apoptosis genes, Gene 348) was 0.390, the “APP log2FC” value (Apoptosis genes, Gene 351) was 0.331 and the “FASLG log2FC” value (Apoptosis genes, Gene 356) was -0.231. The “AQP2 log2FC” value (Apoptosis genes, Gene 359) was -0.010, the “AR log2FC” value (Apoptosis genes, Gene 367) was 0.287 and the “ARAF log2FC” value (Apoptosis genes, Gene 369) was -0.336. The “ARF6 log2FC” value (Apoptosis genes, Gene 382) was -0.566, the “RHOB log2FC” value (Apoptosis genes, Gene 388) was -0.099 and the “ARHGAP4 log2FC” value (Apoptosis genes, Gene 393) was 0.173. For the same compound, the “ARHGDIA log2FC” value (Apoptosis genes, Gene 396) was -0.904, the “ARRB2 log2FC” value (Apoptosis genes, Gene 409) was 0.444 and the “ASCL1 log2FC” value (Apoptosis genes, Gene 429) was -0.053. The “ASNS log2FC” value (Apoptosis genes, Gene 440) was -0.385, the “ATF4 log2FC” value (Apoptosis genes, Gene 468) was -0.201 and the “ATM log2FC” value (Apoptosis genes, Gene 472) was 0.013. The “ATP2A1 log2FC” value (Apoptosis genes, Gene 487) was -0.025, the “AVP log2FC” value (Apoptosis genes, Gene 551) was -0.317 and the “AXL log2FC” value (Apoptosis genes, Gene 558) was 0.362. For the same compound, the “AZU1 log2FC” value (Apoptosis genes, Gene 566) was 0.048, the “BAD log2FC” value (Apoptosis genes, Gene 572) was 0.529 and the “BAG1 log2FC” value (Apoptosis genes, Gene 573) was 1.113. For the same compound, the “BAK1 log2FC” value (Apoptosis genes, Gene 578) was -0.383, the “BARD1 log2FC” value (Apoptosis genes, Gene 580) was 0.336 and the “BAX log2FC” value (Apoptosis genes, Gene 581) was -0.146. The “BCL2 log2FC” value (Apoptosis genes, Gene 596) was -0.342, the “BCL2A1 log2FC” value (Apoptosis genes, Gene 597) was -0.041 and the “BCL2L1 log2FC” value (Apoptosis genes, Gene 598) was -0.919. The “BCL2L2 log2FC” value (Apoptosis genes, Gene 599) was 0.313, the “BCL3 log2FC” value (Apoptosis genes, Gene 602) was -1.077 and the “BCL6 log2FC” value (Apoptosis genes, Gene 604) was 1.197. The “BDNF log2FC” value (Apoptosis genes, Gene 627) was -0.180, the “BID log2FC” value (Apoptosis genes, Gene 637) was -0.261 and the “BIK log2FC” value (Apoptosis genes, Gene 638) was -0.571. The “BLM log2FC” value (Apoptosis genes, Gene 641) was 0.071, the “BMP4 log2FC” value (Apoptosis genes, Gene 652) was 0.224 and the “BMP7 log2FC” value (Apoptosis genes, Gene 655) was -0.324.
